{"source": "patent US20230134859A1", "about": "“METHOD FOR SCREENING FOR, METHOD FOR PRODUCING, AND METHOD FOR DESIGNING DRUG ACTIVE INGREDIENTS” (SKY PHARMA CO., LTD., priority 2020, published 2023)", "key": {"[1]": {"system": "T-cell type acute lymphocytic leukemia model", "assay": "Test Example 10: verification of anticancer effect in T-cell type acute lymphocytic leukemia model", "type": "in vivo, zebrafish", "procedure": "T-cell type acute lymphocytic leukemia model specifically expressing GFP in vascular endothelial cells\nA liquid agent prepared by adding a compound to E3 Ringer to adjust to 100 μM was microscopically injected into the body ventral main vessel of an embryo of a T cell-type acute lymphatic leukemia model individual 24 hours after fertilization. E3 Ringer was similarly microscopically injected as a control. At the time of microinjection, embryos were held on the body side up in a 3% methylcellulose/E3 Ringer/0.02% tricaine solution on a glass slide, and then a glass capillary was inserted into an abdominal main vessel running in the head-to-tail direction at the boundary between the body wall and egg yolk. Then, a nitrogen gas pressure (15 picosiemens) was applied for 30 to 45 milliseconds, and the mixture was injected into the blood vessel. At this time, 0.025% (final concentration) phenol red was mixed as a tracer of the injection solution. The amount to be injected was adjusted by applying gas pressure in a pulsed manner until a large blood vessel of the whole body became uniform and thin red due to blood flow. […]\nIn addition, survival rates of drug-injected individuals and control individuals were counted. […]"}, "[2]": {"system": "retinal ganglion cells", "assay": "Test Example 5: regeneration induction of mouse retinal neurons by eye drop in high intraocular pressure glaucoma model", "type": "in vivo", "conditions": "100 μM eye drops to both eyes three times a day; 10 days to 1 month; vs control", "procedure": "High intraocular glaucoma model mouse (transgenic lines specifically expressing green fluorescent protein (GFP) in retinal ganglion cells)\nTo an adult of a high intraocular pressure glaucoma model mouse, a solution prepared by dissolving 100 μM of the test compound in 1% methyl cellulose/physiological saline was administered by instillation to both eyes at […] per a time three times a day.\nAs a control experiment (control), an experiment of instilling 1% methyl cellulose/physiological saline containing no test compound was also performed."}, "[3]": {"system": "cardiomyocytes", "assay": "Test Example 8: enhancement of myocardium in zebrafish embryo (nkx2.5 in situ hybridization, blood cells pumped per heartbeat)", "type": "in vivo", "conditions": "test compounds = Compounds 1 to 7", "procedure": "Zebrafish embryos at 10 hours after fertilization were held with the dorsal side of the head up on a coffin (plastic plate with V-shaped grooves for holding), and a glass capillary was inserted into a midline between head and ear vesicles (heart primordium). Nitrogen gas pressure (15 picosiemens) was applied for 15 to 45 milliseconds and injected into the gap just below the neural tube. The test compound concentration was 100 μM/E3, and 0.025% (final concentration) phenol red was mixed as a tracer of the injection solution. The injection was performed in pulses with a foot pedal and continued until phenol red was distributed in an elliptical shape with a major axis of 200 μm from the insertion point. After injection, embryos were cultured at 28.5° C. for 14 hours in E3. After chorions were removed with tweezers, the embryos were fixed with 4% paraformaldehyde/PBS at normal temperature for 1 hour, and in situ hybridization was performed overnight at 65° C. in the presence of a DIG probe of nk×2.5 as a cardiac muscle marker according to a conventional method. After washing, cardiomyocytes were stained by an alkali phosphatase color reaction using an anti-DIG antibody. The stained embryos were washed with PBS, embedded in 75% glycerin/PBS and localized, and then microscopically photographed with incident light. The number of tested individuals was unified with n=80 for each compound.\nIn addition, the zebrafish embryos injected with the test compound by the above-described method were cultured at 28.5° C. until 48 hours after fertilization, embedded in 3% methyl cellulose/E3, and a moving image was photographed. The number of blood cells pumped in one heartbeat in time-lapse was counted n=15 and compared to Ringer injected individuals."}, "[4]": {"system": "pancreatic β cells", "assay": "Test Example 9: pancreatic β cells and insulin in transgenic zebrafish embryos", "type": "in vivo", "conditions": "vs control", "procedure": "Transgenic zebrafish expressing pancreatic β-cell GFP\nTransgenic zebrafish embryos expressing pancreatic β-cell GFP at 10 hours after fertilization were held with the dorsal side of the head up on a coffin, and a glass capillary was inserted from the dorsal side into a gap just below the midline neural tube at about 2 times the distance between the rostral end and the ear vesicles to the caudal side (pancreatic primordium). A nitrogen gas pressure (15 picosiemens) was applied for 15 to 45 milliseconds, and the test compound was injected. The concentration of the test compound was 100 nM/E3, and 0.025% (final concentration) phenol red was mixed as a tracer of the infusion solution. The injection was performed in pulses with a foot pedal and continued until phenol red was distributed in an elliptical shape with a major axis of 200 μm from the insertion point.\nThe test compound (100 nM) was injected on a coffin in transgenic zebrafish embryos expressing pancreatic β-cell GFP at 10 hours after fertilization. After injection, embryos were cultured in E3 at 28.5° C. for 14 hours. After chorions were removed with tweezers, the embryos were fixed with 4% paraformaldehyde/PBS at room temperature for 1 hour, and in situ hybridization was performed overnight at 65° C. in the presence of a DIG probe of insulin (ins) according to a conventional method. After washing, β cells were stained by an alkali phosphatase color reaction using an anti-DIG antibody. After staining, the embryos were washed with PBS, embedded in 75% glycerin/PBS and localized, and then microscopically photographed with incident light. The number of test individuals was unified with n=100 for each test compound (FIG. 23).\nTransgenic zebrafish embryos expressing pancreatic β-cell GFP at 10 hours after fertilization were injected with the test compound (100 nM or 5 nM) on the coffin. After injection, embryos were cultured in E3 at 28.5° C. for 20 hours in the presence of 0.2 mM phenylthiourea (PTU). After chorions were removed with tweezers, the embryos were fixed with 4% paraformaldehyde/PBS at normal temperature for 1 hour, immunohistochemically reacted with an anti-insulin antibody according to a conventional method, and then reacted with an Alexa fluor 488 anti-mouse IgG secondary antibody. The reacted embryos were washed with PBS, embedded in 75% glycerin/PBS and localized, and then microscopically photographed with 488 nm excitation light (FIG. 24). The number of tested individuals was unified with n=10 for each compound. The insulin amount was quantified by measuring the average fluorescence intensity in a circle with a radius of 100 μm centered on the fluorescence point (FIG. 25)."}}, "data": [{"smiles": "CNS(=O)(=O)c1ccccc1Nc1nc(Nc2ccc(N3CCN(C)CC3)cc2OC)ncc1Cl", "note": "[Compound 7, 2-[[5-Chloro-2-[2-methoxy-4-(4-methylpiperazin-1-yl)anilino]pyrimidin-4-yl]amino]-N-methylbenzenesulfonamide]", "values": [{"measurement": "thickening and tumorigenesis of vascular endothelium", "setting": "[1]; 100 μM injected into ventral main vessel at 24, 36 and 48 h after fertilization, observed at 56 h, vs control", "result": "thickening and tumorigenesis of the endothelium were observed"}, {"measurement": "survival rate on Day 28", "setting": "[1]; leukemia model individuals injected with 100 μM, three tests, control 22.4%±4.56", "result": "55.9%±6.07"}, {"measurement": "amplification of retinal ganglion cells", "setting": "[2]", "result": "amplification of retinal ganglion cells was remarkably observed"}, {"measurement": "amount of cardiomyocytes (in situ hybridization, nkx2.5)", "setting": "[3]; 100 μM injected at heart primordium 10 h after fertilization, vs control, n=80", "result": "increase in the amount of cardiomyocytes was observed"}, {"measurement": "stroke volume of blood cells (moving image of the heartbeat)", "setting": "[3]; 100 μM, 48 h after fertilization", "result": "remarkably improved"}, {"measurement": "number of blood cells pumped in one heartbeat", "setting": "[3]; 100 μM, 48 h after fertilization, vs control, n=15", "result": "remarkable increase in the number of blood cells pumped in one heartbeat"}, {"measurement": "number of β cells (pancreatic β-cell GFP fluorescence)", "setting": "[4]; 100 nM injected at pancreatic primordium 10 h after fertilization, observed up to 48 h", "result": "increased as compared with the control individual"}, {"measurement": "production amount of insulin by β cells (in situ hybridization, ins probe)", "setting": "[4]; 100 nM, 14 h after injection, n=100", "result": "significantly increased as compared with the control individual"}]}]}
